Assay [1] has as its target glutathione-S-transferase (GST, GSTP1). Nature of the assay: in vitro enzyme activity assay (GSH/CDNB conjugation, absorbance at […] nm). It is filed as biochemical.
Assay [2] addresses glutathione reductase-1 (GSR, GSR1). The experiment in a line: in vitro enzyme activity assay (GSSG/NADPH, absorbance at […] nm). The format is biochemical.

This is an account of results in PMC4309848, “The role of the catecholic and the electrophilic moieties of caffeic acid in Nrf2/Keap1 pathway activation in ovarian carcinoma cell lines” (Redox Biology, 2014).

With `O=C(O)/C=C/c1ccc(O)c(O)c1` [CA, caffeic acid], the IC50 in assay [1] is 95 µM; in assay [2], 70 µM.

The term IC50 denotes the point on the concentration scale where inhibition reaches its midpoint.
